Literature values in patent publication US20240000829A1, “COPOLYMER CONTAINING POLY(ETHYLENE GLYCOL) AND POLY(L-AMINO ACID DERIVATIVE), MICROPARTICLES THEREOF AND USE THEREOF IN PHARMACEUTICAL COMPOSITION” (University of Tsukuba, priority 2020, published 2024).

System: patients with hepatic disorders such as hepatic cirrhosis
Settings: reported; Non-Patent Document 1

In the case of `NCCC[C@H](N)C(=O)O` [L-ornithine], the “ammonia level / concentration” value is given as “reduced ammonia levels”.
